Patent US12097194B2, “Combination therapy for treating blood cancer” (SIGNALCHEM LIFESCIENCES CORPORATION, priority 2018, dated 2024)
Read-outs that look alike come from different tables or passages of the source.

Key:
MV4-11 AML cell line = test: Compound dose response assay (trypan blue % viability) and CompuSyn combination analysis, MV4-11; type: cell-based; conditions: Homo sapiens
Description: (§1) The AML cell lines Molm-13 and MV4-11 were obtained from DSMZ. The cells were maintained in culture using RPMI-1640 containing 10% heat-inactivated serum at 37° C./5% CO2. For all experiments, unless otherwise specified, the above-mentioned culture conditions were used. The BCL-2 inhibitors venetoclax (ABT-199) and navitoclax (ABT-263) were purchased from Chemietek. The Axl inhibitor 3-(5-(cyclopropylmethyl)-1,3,4-oxadiazol-2-yl)-5-(1-(piperidin-4-yl)-1H-pyrazol-4-yl)pyridin-2-amine (Compound A) was synthesized according to the method disclosed in WO2015/081257.
(§2) The AML cells Molm-13 and MV4-11 were plated at 5×10^4 cells/mL in 24-well plates and dosed the following day using single or combination of drugs with vehicle (DMSO) only controls. Each cell treatment was conducted in duplicates. Cells were collected 48- or 72-hours post drug treatment, mixed 1:1 with trypan blue and counted manually using a hemocytometer. A total of 100 cells (at the least) were counted for each sample. The % viability was calculated and normalized to vehicle treated controls. Individual IC50 of each compound was determined in each cell line using increasing doses. Four doses less than the IC50 for each compound for each cell line were chosen to conduct the combination studies. The IC50 values were calculated using Prism Version 5.01. CompuSyn software Version 1.0 was used to calculate the combination indices.
(§3) The fraction affected (FA) at the same dose was much higher for the compound combination groups compared to that of the single compound groups.

MV4-11 cells = test: MV4-11 cell line xenograft model of AML in NRG mice; type: in vivo; conditions: MV4-11 xenograft, 50 mg/kg QD each agent, oral; for bioluminescent signal (IVIS) / leukemia progression: 3 weeks (15 doses)
Description: To investigate the safety and the effectiveness of Compound A monotherapy and combination therapy with ABT-199 for eliminating human leukemic cells in animals, a cell-line based xenograft mouse study was performed. First, MV4-11 cells were transduced with a GFP/Luciferase lentivirus vector to allow sorting/analyzing of human leukemic cells in mice and the non-invasive in vivo imaging system (IVIS) of the mice to track leukemia development and leukemia forming sites. Then, 2.5 million of GFP positive MV4-11 cells per mouse were injected intravenously into irradiated male NRG mice. Two weeks after injection, IVIS imaging was performed to confirm leukemia formation and consistent levels of leukemia burden in each mouse. Following that, mice received 3 weeks (total of 15 doses) of oral treatment with vehicle (control), 50 mg/kg Compound A alone QD, 50 mg/kg ABT-199 alone QD or a combination of Compound A (50 mg/kg, QD) and ABT-199 (50 mg/kg, QD).
After the treatment period, another round of IVIS imaging was performed to evaluate the effectiveness of the treatments. FIG. 8A and FIG. 8B show the bioluminescent imaging of representative mice before treatment and after oral gavages with indicated treatments, respectively. Darkened areas represent sites of observed bioluminescence resultant from presence of GFP/Luciferase leukemic cells. For comparison, healthy mice with no transduced leukemic cells (“no cells”) are also shown.
A representative group of mice was then sacrificed to compare engraftment of leukemic cells in peripheral blood (PB), bone marrow (BM), spleens and livers of each treatment group. Infiltration of leukemic cells into hematopoietic organs as spleen and liver was assessed by weights and histopathologic analysis. FIGS. 9A and 9B show spleen sizes and weights, and Haemotoxylin and Eosin staining of representative mice from each treatment group as indicated, respectively.
The remaining mice were monitored for survival between treatment groups. […] Median survival for each treatment group is indicated in days in brackets. P-values were calculated with the Log-rank (Mantel-Cox) test and significant differences between groups are indicated.

Molm-13 AML cell line = test: Compound dose response assay (trypan blue % viability) and CompuSyn combination analysis, Molm-13; type: cell-based; conditions: Homo sapiens
Description: as §1, §2, §3

[1] = test system: CD34+ stem and progenitor cells from AML patients; test: Patient-derived xenograft (PDX) model of AML in NRG-3GS mice; type: in vivo; conditions: 50 mg/kg QD each agent, oral gavage, 4 weeks, compared to healthy non-leukemic mice
From the text: The relative effectiveness of Compound A and the combination of Compound A and ABT-199 in targeting primitive leukemic cells and/or to prevent leukemia development were investigated in in vivo assays. First, highly purified CD34+ stem and progenitor cells from two different AML patients (with high Axl and GAS6 expression; cohort 1=AML patient #2, cohort 2=AML patient #14, as determined in Example 2) were transduced with a GFP/Luciferase lentivirus reporter to allow non-invasive in vivo imaging (IVIS) of the mice to track leukemia development. […]
Leukemic cell burden was also measured in peripheral blood (PB), bone marrow (BM) and spleens in one set of euthanized mice (one mouse from each treatment group in both cohorts, respectively) and immunophenotypes of engrafted cells determined with fluorescently-labelled CD45, CD34, CD38, CD33, CD15, CD14, CD19 surface markers. Splenomegaly was assessed by spleen sizes and weights (FIG. 5).
All remaining mice were monitored for symptoms of disease development (weight loss, lethargy etc.) and survival between treatment groups compared. […] P-values were calculated with the Log-rank (Mantel-Cox) test and significant differences between groups are indicated.

[2] = BCL-2 inhibitor + Cmpd A, read-out: IC50 (nM) of BCL-2 inhibitor in the presence of Compound A
[3] = single agent, % viability normalized to vehicle, 48 or 72 hours post treatment, read-out: IC50 (nM), single agent

Compound	IC50 (MV4-11 AML cell line; [2]) [nM]	IC50 (MV4-11 AML cell line; [3]) [nM]	spleen enlargement (spleen sizes and weights) (MV4-11 cells; 3 weeks)	bioluminescent signal (IVIS) / leukemia progression (MV4-11 cells)	IC50 (Molm-13 AML cell line; [2]) [nM]	IC50 (Molm-13 AML cell line; [3]) [nM]	splenomegaly (spleen sizes and weights) [1]	leukemia propagating activity in vivo (MV4-11 cells; 3 weeks)
CC1(C)CCC(CN2CCN(c3ccc(C(=O)NS(=O)(=O)c4ccc(NCC5CCOCC5)c([N+](=O)[O-])c4)c(Oc4cnc5[nH]ccc5c4)c3)CC2)=C(c2ccc(Cl)cc2)C1 [ABT-199, Venetoclax]	0.99	20.5	increased size and weight in the spleens	aggressive leukemia progression	9.9	55.9	significantly enlarged	–
CC1(C)CCC(c2ccc(Cl)cc2)=C(CN2CCN(c3ccc(C(=O)NS(=O)(=O)c4ccc(N[C@H](CCN5CCOCC5)CSc5ccccc5)c(S(=O)(=O)C(F)(F)F)c4)cc3)CC2)C1 [ABT-263, Navitoclax]	36.8	93.5	–	–	116	358	–	–
Nc1ncc(-c2cnn(C3CCNCC3)c2)cc1-c1nnc(CC2CC2)o1 [Compound A, 3-(5-(cyclopropylmethyl)-1,3,4-oxadiazol-2-yl)-5-(1-(piperidin-4-yl)-1H-pyrazol-4-yl)pyridin-2-amine]	–	421	no sign of spleen enlargement	dramatically lower intensity bioluminescent signals compared to vehicle and ABT-199 treated mice	–	430	significantly enlarged	can reduce leukemia propagating activity in vivo
